Measured values reported in patent US11584747B2, “Substituted pyridopyrimidinonyl compounds useful as T cell activators” (BRISTOL-MYERS SQUIBB COMPANY, priority 2019, dated 2023).

How the values were obtained:
human DGKζ = human DGKζ (Homo sapiens (Human), UniProt Q13574); experiment: DGKζ LIPGLO assay (extruded liposome substrate, ADP-Glo luminescence); format: biochemical; conditions: liposome (LIPGLO) assay; read-out: DGK zeta (liposome assay) IC50
human DGKα = human DGKα (Homo sapiens (Human), UniProt P23743); experiment: DGKα ADPGLO assay (detergent/lipid micelle substrate); format: biochemical; conditions: ADPGLO assay; read-out: DGK alpha ADPGLO IC50
human DGKα, sequence (P23743 whole entry, looked up, the tested form may be a part): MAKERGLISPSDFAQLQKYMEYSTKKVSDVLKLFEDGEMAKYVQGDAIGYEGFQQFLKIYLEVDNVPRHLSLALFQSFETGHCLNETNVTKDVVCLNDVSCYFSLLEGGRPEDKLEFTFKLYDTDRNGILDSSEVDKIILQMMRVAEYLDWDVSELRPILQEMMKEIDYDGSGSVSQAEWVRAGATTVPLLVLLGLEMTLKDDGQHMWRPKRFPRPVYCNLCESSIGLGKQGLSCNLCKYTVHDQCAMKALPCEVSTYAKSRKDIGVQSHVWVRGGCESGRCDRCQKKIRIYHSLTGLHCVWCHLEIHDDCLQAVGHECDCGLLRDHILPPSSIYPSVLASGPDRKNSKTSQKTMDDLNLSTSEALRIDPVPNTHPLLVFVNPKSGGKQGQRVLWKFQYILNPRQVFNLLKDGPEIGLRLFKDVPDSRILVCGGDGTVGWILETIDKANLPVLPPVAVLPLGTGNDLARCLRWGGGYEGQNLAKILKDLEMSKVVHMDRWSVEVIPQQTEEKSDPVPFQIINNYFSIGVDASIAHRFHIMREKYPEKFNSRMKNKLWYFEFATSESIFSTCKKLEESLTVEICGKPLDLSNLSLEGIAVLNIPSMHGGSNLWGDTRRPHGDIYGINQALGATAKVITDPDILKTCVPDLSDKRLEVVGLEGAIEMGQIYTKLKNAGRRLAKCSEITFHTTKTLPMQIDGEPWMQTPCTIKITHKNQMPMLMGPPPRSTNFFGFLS
Protocol: DGK Alpha ADPGLO (Truncated) IC50 (uM)
The detergent/lipid micelle was prepared by combining 15 g phosphatidylserine (Avanti 840035P) and 1 g diacylglycerol (8008110) and dissolving into 150 mL chloroform in a 2 L round bottom flask. Chloroform was removed under high vacuum by rotary evaporation. […] The lipid/detergent solution was split into 5 mL aliquots and stored at −80° C.

whole blood (pERK) = experiment: pERK Whole Blood; format: cell-based
[1] = system: human venous whole blood (IFN-γ); experiment: Human whole blood IFN-γ assay; format: cell-based; conditions: human whole blood, anti-CD3 plus anti-CD28 stimulation, 24 hours; read-out: IFN-γ Whole Blood EC50
Protocol: Human venous whole blood (22.5 μL per well), obtained from healthy donors, was pre-treated with compounds for one hour at 37° C. in a humidified 95% air/5% CO2 incubator. The blood was stimulated with 2.5 μL anti-human CD3 and anti-CD28 mAb at a final concentration of 1 μg/mL each for 24 hours at 37° C. IFN-γ in the supernatants was measured using AlphLISA kit (Cat #AL217).

human DGKζ, sequence (Q13574 other isoform, or with tags, fused parts or gaps): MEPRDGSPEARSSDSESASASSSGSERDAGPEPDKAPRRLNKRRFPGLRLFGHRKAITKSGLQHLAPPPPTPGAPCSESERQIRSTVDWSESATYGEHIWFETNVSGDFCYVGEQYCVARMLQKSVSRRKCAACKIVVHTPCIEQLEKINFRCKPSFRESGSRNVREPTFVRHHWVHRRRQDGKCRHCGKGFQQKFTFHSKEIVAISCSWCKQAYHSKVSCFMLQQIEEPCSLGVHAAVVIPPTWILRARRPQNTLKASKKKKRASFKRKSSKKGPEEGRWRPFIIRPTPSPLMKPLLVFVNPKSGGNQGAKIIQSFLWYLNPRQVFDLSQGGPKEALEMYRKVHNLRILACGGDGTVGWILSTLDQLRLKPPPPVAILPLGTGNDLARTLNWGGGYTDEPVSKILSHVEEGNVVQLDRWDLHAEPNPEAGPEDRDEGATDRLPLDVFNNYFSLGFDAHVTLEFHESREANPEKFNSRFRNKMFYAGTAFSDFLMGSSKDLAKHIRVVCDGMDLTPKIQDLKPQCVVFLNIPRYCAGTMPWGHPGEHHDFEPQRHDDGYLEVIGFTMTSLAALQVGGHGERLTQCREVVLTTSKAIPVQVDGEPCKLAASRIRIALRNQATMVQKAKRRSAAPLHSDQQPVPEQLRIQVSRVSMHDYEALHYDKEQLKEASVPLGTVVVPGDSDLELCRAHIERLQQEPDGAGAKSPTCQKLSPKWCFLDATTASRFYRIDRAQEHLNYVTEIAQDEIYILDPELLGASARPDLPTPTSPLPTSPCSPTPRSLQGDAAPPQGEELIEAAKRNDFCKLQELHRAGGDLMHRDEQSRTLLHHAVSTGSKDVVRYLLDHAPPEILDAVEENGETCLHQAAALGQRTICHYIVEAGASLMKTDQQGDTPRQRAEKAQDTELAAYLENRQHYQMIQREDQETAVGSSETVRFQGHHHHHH

Structure (SMILES)	IC50 (human DGKζ) [nM]	IC50 (human DGKα) [nM]	EC50 (whole blood (pERK)) [nM]	EC50 [1] [nM]
CC(c1ccc(C(F)(F)F)cc1)N1C[C@H](CO)N(c2nc(=O)n(C)c3ccc(C#N)nc23)C[C@H]1C (single isomer, unassigned) [Example 407]	31000	400	640	–
CC(c1ccc(C(F)(F)F)cc1)N1C[C@H](CO)N(c2nc(=O)n(C)c3ccc(C#N)nc23)C[C@H]1C (single isomer, unassigned) [Example 406]	81100	1960	7130	–
CCC(c1ccc(C(C)(C)C#N)cc1)N1C[C@H](C)N(c2nc(=O)n(C)c3ccc(C#N)nc23)C[C@H]1CC (stereo partly drawn) [Example 318, 4-((2S,5R)-4-(1-(4-(2-cyanopropan-2-yl)phenyl)propyl)-5-ethyl-2-methylpiperazin-1-yl)-1-methyl-2-oxo-1,2-dihydropyrido[3,2-d]pyrimidine-6-carbonitrile]	1570	620	3070	–
CCC(c1ccc(OCC2CN(C)C2)cc1)N1C[C@H](C)N(c2nc(=O)n(C)c3ccc(C#N)nc23)C[C@H]1CC (some centres unmarked) [Example 344, 4-((2 S, 5R)-5-ethyl-2-methyl-4-(1-(4-((1-methylazetidin-3-yl)methoxy)phenyl)propyl)piperazin-1-yl)-1-methyl-2-oxo-1,2-dihydropyrido[3,2-d]pyrimidine-6-carbonitrile]	17100	10100	20000	–
CC[C@@H]1CN(c2nc(=O)n(C)c3ccc(C#N)nc23)[C@@H](C)CN1C(C)c1ccc(C2(C#N)CC2)cc1 (stereo partly drawn) [Example 325, 4-((2S,5R)-4-(1-(4-(1-cyanocyclopropyl)phenyl)ethyl)-5-ethyl-2-methylpiperazin-1-yl)-1-methyl-2-oxo-1,2-dihydropyrido[3,2-d]pyrimidine-6-carbonitrile]	69	800	70	–
CCC(c1ccc(OCC2(C)CC2)cc1)N1C[C@H](C)N(c2nc(=O)n(C)c3ccc(C#N)nc23)C[C@H]1CC (stereo partly drawn) [Example 345, 4-((2S,5R)-5-ethyl-2-methyl-4-(1-(4-((1-methylcyclopropyl)methoxy)phenyl)propyl)piperazin-1-yl)-1-methyl-2-oxo-1,2-dihydropyrido[3,2-d]pyrimidine-6-carbonitrile]	95	49	1740	–
[2H]C([2H])([2H])n1c(=O)nc(N2C[C@@H](CC)N(C(C)c3ccc(C(F)(F)F)cc3)C[C@@H]2C)c2nc(C#N)ccc21 (single isomer, unassigned) [Example 419]	55	33	20000	–
CCOc1ccc(C(CC)N2C[C@H](C)N(c3nc(=O)n(C)c4ccc(C#N)nc34)C[C@H]2CC)cc1 (stereo partly drawn) [Example 306, 4-((2S,5R)-4-(1-(4-ethoxyphenyl)propyl)-5-ethyl-2-methylpiperazin-1-yl)-1-methyl-2-oxo-1,2-dihydropyrido[3,2-d]pyrimidine-6-carbonitrile]	28	11	230	–
CC[C@@H]1CN(c2nc(=O)n(C)c3ccc(C#N)nc23)[C@@H](CO)CN1C(C)c1ccc(C(F)(F)F)cc1 (single isomer, unassigned) [Example 412]	45000	9670	670	–
CC[C@@H]1CN(c2nc(=O)n(C)c3ccc(C(F)F)nc23)[C@@H](C)CN1C(C)c1ccc(C(F)(F)F)cc1 (stereo partly drawn) [Example 441, 6-(difluoromethyl)-4-((2S,5R)-5-ethyl-2-methyl-4-(1-(4-(trifluoromethyl)phenyl)ethyl)piperazin-1-yl)-1-methylpyrido[3,2-d]pyrimidin-2(1H)-one]	26900	190	700	–
CCC(c1ccc(C(F)(F)F)cc1)N1C[C@H](C)N(c2nc(=O)n(C)c3ccc(C#N)nc23)C[C@H]1COC (single isomer, unassigned) [Example 399]	700	160	20000	–
CC[C@@H]1CN(c2nc(=O)n(C)c3ccc(C#N)nc23)[C@@H](C)CN1C(c1ccc(OC)cc1)C(C)C (stereo partly drawn) [Example 313, 4-((2S,5R)-5-ethyl-4-(1-(4-methoxyphenyl)-2-methylpropyl)-2-methylpiperazin-1-yl)-1-methyl-2-oxo-1,2-dihydropyrido[3,2-d]pyrimidine-6-carbonitrile]	650	230	57	–
C[C@@H]1CN(c2nc(=O)n(C)c3ccc(C#N)nc23)[C@@H](C)CN1C(c1ccc(F)cc1)C12CC(C(F)(F)F)(C1)C2 (stereo partly drawn) [Example 450, 4-((2S,5R)-4-((4-fluorophenyl)(3-(trifluoromethyl)bicyclo[1.1.1]pentan-1-yl)methyl)-2,5-dimethylpiperazin-1-yl)-1-methyl-2-oxo-1,2-dihydropyrido[3,2-d]pyrimidine-6-carbonitrile]	370	200	20000	–
CC(c1ccc(CN2C[C@@H](C)O[C@@H](C)C2)cc1)N1C[C@H](C)N(c2nc(=O)n(C)c3ccc(C#N)nc23)C[C@H]1C (stereo partly drawn) [Example 389, 4-((2S,5R)-4-(1-(4-(((2S,6R)-2,6-dimethylmorpholino)methyl)phenyl)ethyl)-2,5-dimethylpiperazin-1-yl)-1-methyl-2-oxo-1,2-dihydropyrido[3,2-d]pyrimidine-6-carbonitrile]	8220	1000	370	–
CCOC[C@@H]1CN(c2nc(=O)n(C)c3ccc(C#N)nc23)[C@@H](C)CN1C(CC)c1ccc(C(F)(F)F)cc1 (stereo partly drawn) [Example 400, 4-((2S,5S)-5-(ethoxymethyl)-2-methyl-4-(1-(4-(trifluoromethyl)phenyl)propyl)piperazin-1-yl)-1-methyl-2-oxo-1,2-dihydropyrido[3,2-d]pyrimidine-6-carbonitrile]	47	750	20000	–
CC[C@H]1CN(C(C)c2ccc(C(F)(F)F)cc2)[C@H](CC)CN1c1nc(=O)n(C)c2ccc(OC(F)F)nc12 (stereo partly drawn) [Example 445, 4-((2S,5R)-2,5-Diethyl-4-(1-(4-(trifluoromethyl)phenyl)ethyl)piperazin-1-yl)-6-(difluoromethoxy)-1-methylpyrido[3,2-d]pyrimidin-2(1H)-one]	2210	950	9590	–
[2H]C([2H])([2H])n1c(=O)nc(N2C[C@@H](CC)N(C(C)c3ccc(C(F)(F)F)cc3)C[C@@H]2C)c2nc(Cl)ccc21 (single isomer, unassigned) [Example 418]	8710	92	20000	–
CC[C@@H]1CN(c2nc(=O)n(C)c3ccc(C#N)nc23)[C@@H](CO)CN1C(C)c1ccc(C(F)(F)F)cc1 (single isomer, unassigned) [Example 411]	1240	820	1890	–
CCC(c1ccc(OCC2COC2)cc1)N1C[C@H](C)N(c2nc(=O)n(C)c3ccc(C#N)nc23)C[C@H]1CC (stereo partly drawn) [Example 342, 4-((2S,5R)-5-ethyl-2-methyl-4-(1-(4-(oxetan-3-ylmethoxy)phenyl)propyl)piperazin-1-yl)-1-methyl-2-oxo-1,2-dihydropyrido[3,2-d]pyrimidine-6-carbonitrile]	1200	1090	7930	–
CCC(c1ccc(OCC2COC2)cc1)N1C[C@H](C)N(c2nc(=O)n(C)c3ccc(C#N)nc23)C[C@H]1CC (stereo partly drawn) [Example 341, 4-((2S,5R)-5-ethyl-2-methyl-4-(1-(4-(oxetan-3-ylmethoxy)phenyl)propyl)piperazin-1-yl)-1-methyl-2-oxo-1,2-dihydropyrido[3,2-d]pyrimidine-6-carbonitrile]	130	61	2980	–
CC[C@@H]1CN(c2nc(=O)n(C)c3ccc(C#N)nc23)[C@@H](C)CN1C(C)c1ccc(C2CCOCC2)cc1 (stereo partly drawn) [Example 329, 4-((2 S,5R)-5-ethyl-2-methyl-4-(1-(4-(tetrahydro-2H-pyran-4-yl)phenyl)ethyl)piperazin-1-yl)-1-methyl-2-oxo-1,2-dihydropyrido[3,2-d]pyrimidine-6-carbonitrile]	740	5290	1560	–
CC[C@H]1CN(C(C)c2ccc(C(F)(F)F)cc2)[C@H](CC)CN1c1nc(=O)n(C)c2ccc(C(F)F)nc12 (stereo partly drawn) [Example 439, 4-((2S,5R)-2,5-Diethyl-4-(1-(4-(trifluoromethyl)phenyl)ethyl)piperazin-1-yl)-6-(difluoromethyl)-1-methylpyrido[3,2-d]pyrimidin-2(1H)-one]	400	360	10900	–
CCC[C@@H]1CN(c2nc(=O)n(C)c3ccc(C#N)nc23)[C@@H](C)CN1C(C)c1ccc(C(F)(F)F)cc1 (single isomer, unassigned) [Example 395]	–	490	20000	–
CCOc1ccc2c(n1)c(N1C[C@@H](CC)N(C(C)c3ccc(C(F)(F)F)cc3)C[C@@H]1CC)nc(=O)n2C (stereo partly drawn) [Example 430, 4-((2S,5R)-2,5-diethyl-4-(1-(4-(trifluoromethyl)phenyl)ethyl)piperazin-1-yl)-6-ethoxy-1-methylpyrido[3,2-d]pyrimidin-2(1H)-one]	125000	–	20000	20000
